System: Bacillus subtilis ITB 105 strain (NITE BP-01727)
Experiment: Three-stage liquid culture with streptomycin added; colony count (CFU) and abnormal colony morphology on agar
Format: cell-based
Conditions: for Appearance (%) of abnormal colonies / CFU / Number of abnormal colonies / Number of normal colonies: third stage, 30 hour
Description: Using a 500 mL Erlenmeyer flask (with a baffle), 100 mL each of liquid medium containing the components of the medium listed in Table 1 was prepared, and then autoclave sterilization was performed. In order to avoid the Maillard reaction, glucose was separately sterilized and mixed aseptically.
The test sections were set as described in Table 2. According to the conditions for each test section, an aqueous solution of filter-sterilized streptomycin was aseptically added to the medium.
One platinum loop was taken from a colony of Bacillus subtilis ITB 105 strain (NITE BP-01727) grown on a common agar medium and inoculated, and then shake culture was performed at 30° C. and 150 rpm (first stage). Eighteen hours later, 1 mL of each culture solution was aliquoted and transferred to a fresh medium, and then shaking culture was performed in the same manner (second stage). After 24 hours, 1 mL of each culture solution was aliquoted and then transferred to a fresh medium, and then shaking culture was performed in the same manner (third stage). The third-stage culture solution was sampled after 30 hours.
The resulting culture solutions were each diluted 1×10^7 folds with sterile water, and 100 μL of the diluted solution was applied to a common agar medium and then cells were cultured overnight at 37° C. The number of colonies that had appeared was determined to calculate CFU. Colonies that had appeared and clearly differed in colony morphology compared with the parent strain on the basis of the criteria in Table 3 were determined as abnormal colonies and the number of the abnormal appearing colonies was determined and then the proportion thereof in the total number of colonies was calculated. As a result, in the three-stage culture, abnormal appearing colonies accounted for about 5% when no antibiotic was added.

[1] = Test section No. 2: streptomycin 5 ppm in first and second stage, none in third
[2] = Test section No. 3: streptomycin 10 ppm in first and second stage, none in third
[3] = Test section No. 4: streptomycin 15 ppm in first and second stage, none in third
[4] = Test section No. 5: streptomycin 20 ppm in first and second stage, none in third
[5] = Test section No. 6: streptomycin 30 ppm in first and second stage, none in third
[6] = Test section No. 7: streptomycin 30 ppm in first, second and third stage
[7] = streptomycin added in all of the first, second and third stages

SMILES: [H]/N=C(/N)N[C@H]1[C@H](O)[C@@H](O)[C@H](O[C@@H]2O[C@@H](C)[C@](O)(C=O)[C@H]2O[C@@H]2O[C@@H](CO)[C@H](O)[C@@H](O)[C@@H]2NC)[C@@H](N/C(N)=N\[H])[C@@H]1O [Streptomycin, streptomycin]
- Appearance (%) of abnormal colonies [1]: 0.0%
- CFU [1]: 8.8e+09 mL⁻¹
- Number of abnormal colonies [1]: 0
- Number of normal colonies [1]: 88
- Appearance (%) of abnormal colonies [2]: 0.0%
- CFU [2]: 1.09e+10 mL⁻¹
- Number of abnormal colonies [2]: 0
- Number of normal colonies [2]: 109
- Appearance (%) of abnormal colonies [3]: 0.0%
- CFU [3]: 7e+09 mL⁻¹
- Number of abnormal colonies [3]: 0
- Number of normal colonies [3]: 70
- Appearance (%) of abnormal colonies [4]: 0.0%
- CFU [4]: 8.2e+09 mL⁻¹
- Number of abnormal colonies [4]: 0
- Number of normal colonies [4]: 82
- Appearance (%) of abnormal colonies [5]: 0.0%
- CFU [5]: 6.3e+09 mL⁻¹
- Number of abnormal colonies [5]: 0
- Number of normal colonies [5]: 63
- Appearance (%) of abnormal colonies [6]: 0.0%
- CFU [6]: 4.9e+09 mL⁻¹
- Number of abnormal colonies [6]: 0
- Number of normal colonies [6]: 49
- Appearance of abnormal colonies [7]: no abnormal colony appeared
- Number of appearing colonies and number of normal appearing colonies [7]: low
- Productivity of bacterial cells (streptomycin added in all of the first, second and third stages, compared with Test section Nos. 2 to 6): lower than those of Test section Nos. 2 to 6
- Appearance of abnormal colonies (streptomycin added in the first and second stages, none in the third stage): no appearance of abnormal colonies was observed

— patent US11377632B2, “Production method for bacterial cells” (IDEMITSU KOSAN CO., LTD., priority 2017, dated 2022)
